Literature values, collected in patent US5503831A, “Lipase inhibitor derived from a defatted rice germ” (Yakurigaku Chuo Kenkyusho, priority 1993, dated 1996).

Test system: lipase
Details: in the presence of bile acids (sodium taurocholic acid for wheat germ protein), emulsified lipids

Substance | Action on lipase in the presence of bile acids
β-lactoglobulin | does not exert such an action
serum albumin | does not exert such an action
